The test system of assay [1] is hippocampal Schaffer collateral-CA1 synapses. Put plainly: Field recording of fEPSP (mGluR-LTD) in acute hippocampal slices. The class given is cell-based, mouse. The following applies: for DHPG-LTD (fEPSP slope): t=75 min. The procedure:
For recording, slices were placed in a submersion recording chamber and perfused with 30° C. ACSF at a rate of 2 ml/min.
fEPSPs were recorded with extracellular recording electrodes (1.0 MΩ) filled with ACSF and placed in the stratum radiatum of area CA1. Synaptic responses were evoked by a 200-μsec current pulse to Schaffer collateral axons with a concentric bipolar tungsten stimulating electrode. Stable baseline responses were collected every 30 sec by using a stimulation intensity (10-30 μA) yielding 50-60% of the maximal fEPSP slope response.
mGluR-LTD was induced by a mGluR1/5 agonist, (R,S)-3,5-DHPG (Tocris), or by electrical stimulations. […] NMDAR dependent-LTD was induced by using 900 single pulses delivered at 1 Hz.

Assay [2] deals with global protein synthesis in cultured neurons. Kind of assay: Metabolic labeling, incorporation of 35S methionine and cysteine into TCA precipitant. The class given is cell-based. The procedure:
To measure the incorporation of ^35S methionine and cysteine into new peptide, 30 μl protein labeling mix (Perkin Elmer) was added into 1.5 ml of regular culture medium (final 220 μCi/ml) for the time indicated in the figures. After washout once with ice-cold PBS, cells were lysed with 700 μl of RIPA buffer. After quantification of total amount of protein, equal amount of lysate (˜200 μl) was precipitated with 10% TCA.

Assay [3] relates to GluR1-containing AMPA receptors in primary hippocampal neurons. Put plainly: AMPA receptor trafficking (surface and internalized GluR1 labeling). The class given is cell-based, mouse. The procedure:
(§1) Labeling of surface or internalized pool of AMPA receptor was performed as described with minor modifications (Shepherd, et al., Neuron, 52, 475-484 (2006)). Briefly, surface GluR1-containing AMPA receptors were then labeled by adding 2.5 μg of GluR1-N JH1816 pAb to the neuronal growth media and were subsequently incubated at 37° C. for 15 or 60 minutes after 5 min DHPG application. To visualize surface and internalized GluR1, Alexa 555 secondary was added in excess live at 10° C. Neurons were fixed, permeabilized and subsequently exposed to Alexa 488 secondary to stain internalized receptors (background in the non-permeabilized control was negligible).
as §1, with “DIV 14-21 mouse primary hippocampal cultures were incubated in neuronal growth media containing 50 μMDHPG for 5 minutes and then washed” for “Labeling of surface or internalized pool of AMPA receptor was performed as described”, “new growth media. Surface” for “minor modifications (Shepherd, et al., Neuron, 52, 475-484 (2006)). Briefly, surface”
Quantification of surface GluR1 puncta was carried out using Image J software. Images were acquired as multi-channel TIFF files with a dynamic range of 4096 gray levels (12-bit binary; MultiTrack acquisition for confocal) using metamorph software on a Zeiss LSM 510 confocal microscope. To measure punctate structures neurons were thresholded by gray value at a level close to 50% of the dynamic range. Background noise from these images was negligible. All puncta were treated as individual objects and the characteristics of each, such as area and average fluorescence, were logged measured. The Data reflected in FIGS. 1B-C was an example of one representative experiment. The total intensity of GluR1 levels were normalized to control, untreated neurons at 60 min. Significance was determined by a paired Student's t-test.

Assay [4] concerns Arc mRNA in cultured neurons. Kind of assay: Real-time RT-PCR of Arc mRNA. The class given is cell-based. The following applies: BDNF 10 ng/ml at 40 min; forskolin 50 μM at 20 min; DHPG at 20 and 40 min after stimulation. The procedure: RNA samples from neuronal cultures were prepared using the PARIS kit (Ambion) according to the manufacturer's protocol. Following RNA extraction, samples were treated with DNase to remove contaminating DNA prior to cDNA synthesis. Total RNA was reverse transcribed using the SuperScript II First Strand Synthesis System for RT-PCR (Invitrogen) according to the manufacturer's protocol. A negative control without reverse transcriptase was included.
Primer specificity was verified by melt curve analysis. PCR amplification of cDNA was performed using the BioRad iCycler Real-Time Detection System (BioRad Laboratories). cDNA (1 μl) was added to 24 μl of 1× reaction master mix (3 mM MgCl2, KCl, Tris-HCl, iTaq DNA polymerase, 25 units/ml SYBR Green 1, 0.2 mM each dNTPs, 10 nM fluorescein and 500 nM each gene specific primers). […]
GAPDH was used to normalize data. The threshold for detection of PCR product above background was set at 10× the standard deviation of the mean background fluorescence for all reactions. Background fluorescence was determined from cycles 1-5 prior to the exponential amplification of product and subtracted from the raw fluorescence of each reaction/cycle. […] Threshold cycle (CT; number of cycles to reach threshold of detection) was determined for each reaction.
Relative gene expression was determined using the 2^−ΔΔCT method (Livak, et al., Methods 25, 402-408 (2001)). […]

Assay [5] addresses T1, eEF2K-mGluR5 interaction (Mus musculus, UniProt Q3UVX5).
T1 construct: confirmed that native mGluR5 associated with eEF2K; from tissue; host or cells: mouse forebrain synaptoneurosomes
Kind of assay: Co-immunoprecipitation of mGluR5 with eEF2K in synaptoneurosomes. As to conditions: WT forebrain synaptoneurosomes, DHPG 20 min.

Consider one compound from patent US20110183942A1, “Methods and Compositions for Treating Alzheimer's Disease” (UNIVERSITY OF MEDICINE AND DENTISTRY OF NEW JERSEY, priority 2008, published 2011).

Each structure is given as a SMILES string.

T1 sequence (Q3UVX5 21-1203 limits assumed): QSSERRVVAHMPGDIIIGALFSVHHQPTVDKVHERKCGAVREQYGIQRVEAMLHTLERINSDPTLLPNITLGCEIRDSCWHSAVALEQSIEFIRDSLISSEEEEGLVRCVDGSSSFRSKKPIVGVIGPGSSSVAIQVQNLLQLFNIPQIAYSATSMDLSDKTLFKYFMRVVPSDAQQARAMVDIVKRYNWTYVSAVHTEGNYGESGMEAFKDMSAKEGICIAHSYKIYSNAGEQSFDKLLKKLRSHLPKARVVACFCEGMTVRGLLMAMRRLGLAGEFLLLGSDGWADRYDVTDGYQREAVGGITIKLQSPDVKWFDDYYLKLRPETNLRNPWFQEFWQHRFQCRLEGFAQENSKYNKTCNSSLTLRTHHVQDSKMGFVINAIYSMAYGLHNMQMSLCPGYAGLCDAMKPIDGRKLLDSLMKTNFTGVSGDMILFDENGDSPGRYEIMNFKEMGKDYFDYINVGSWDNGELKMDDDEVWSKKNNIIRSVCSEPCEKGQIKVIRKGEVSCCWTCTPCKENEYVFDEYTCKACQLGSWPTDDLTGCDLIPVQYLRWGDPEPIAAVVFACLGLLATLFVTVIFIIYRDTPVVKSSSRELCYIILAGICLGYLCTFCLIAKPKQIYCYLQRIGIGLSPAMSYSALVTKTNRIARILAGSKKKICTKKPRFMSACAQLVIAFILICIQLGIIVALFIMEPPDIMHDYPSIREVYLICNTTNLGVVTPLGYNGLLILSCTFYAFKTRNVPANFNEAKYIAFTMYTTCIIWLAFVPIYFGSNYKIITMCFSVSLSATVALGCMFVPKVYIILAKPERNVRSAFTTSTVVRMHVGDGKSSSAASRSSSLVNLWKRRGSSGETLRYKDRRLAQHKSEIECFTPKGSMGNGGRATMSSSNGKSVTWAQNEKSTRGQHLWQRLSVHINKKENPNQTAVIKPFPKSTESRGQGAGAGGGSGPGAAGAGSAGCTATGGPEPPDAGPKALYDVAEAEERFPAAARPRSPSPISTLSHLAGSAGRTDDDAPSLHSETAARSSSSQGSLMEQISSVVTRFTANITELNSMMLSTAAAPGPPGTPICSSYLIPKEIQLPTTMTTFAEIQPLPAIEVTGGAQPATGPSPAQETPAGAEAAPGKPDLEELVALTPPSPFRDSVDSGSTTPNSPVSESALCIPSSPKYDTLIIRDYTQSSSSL

As for `NC(C(=O)O)c1cc(O)cc(O)c1` (racemic) [DHPG, (R,S)-3,5-DHPG], the “fEPSP slope after DHPG” value in assay [1] (Arc KO slices, DHPG 50 μM 5 min, t=70 min) is listed as 92.1±3.7 % of baseline; in assay [1] (Arc KO slices, DHPG 100 μM 5 min, t=90 min), 88.5±7.4 % of baseline; in assay [1] (WT slices (littermates of Arc KO), DHPG 50 μM 5 min, t=70 min), 72.8±2.0 % of baseline; in assay [1] (WT slices (littermates of eEF2K KO), DHPG 50 μM 5 min, t=90 min), 64.7±5.2 % of baseline; in assay [1] (WT slices, DHPG 100 μM 5 min, t=90 min), 64.4±2.6 % of baseline; in assay [1] (eEF2K KO slices, DHPG 50 μM 5 min, t=90 min) it was 108.7±3.6 % of baseline. For the same compound, the “DHPG-LTD (fEPSP slope)” value is reported as 85.9±4.1 % of baseline in assay [1] (Arc/Fmr1 DKO slices, DHPG 50 μM 5 min); 73.0±6.6 % of baseline in assay [1] (FVB WT slices, DHPG 50 μM 5 min); 68.2±2.6 % of baseline in assay [1] (Fmr1 KO slices, DHPG 50 μM 5 min). Besides, the “global protein synthesis compared to untreated control” value in assay [2] (pretreatment of DHPG (30 min before harvest for 5 min)) is reported as 1.080±0.036; in assay [2] (simultaneous treatment of DHPG for 5 min) it was 0.926±0.017. Moreover, the “internalized GluR1” value is recorded as “did not exhibit changes” in assay [3] (Arc KO neurons, after DHPG) and “increase of internalized GluR1” in assay [3] (WT cultures, 15 min after 5 min DHPG). Besides, the “surface GluR1” value is “did not exhibit any changes” in assay [3] (Arc KO neurons, after DHPG); “loss of surface GluR1” in assay [3] (WT hippocampal cultures, 15 min and 60 min after 5 min DHPG). Further, the “level of Arc mRNA” value in assay [4] is reported as “slightly increased the level of Arc mRNA”. For the same compound, the “co-IP of mGluR5 with eEF2K” value in assay [5] is reported as “decreased the co-IP of mGluR5”.
